Test results: patent US4755610A, “Hapalindoles” (priority 1986, dated 1988)
Values after ≈ are worked out from the molar mass of the structure shown.

Experiments:
Format in all cases: cell-based
[1] = test system: Staphylococcus aureus X1.1; assay: In vitro antibacterial activity, standard agar-dilution assay; details: Staphylococcus aureus X1.1; agar dilution; read-out: MIC
[2] = test system: Staphylococcus aureus V41; assay: as above; details: Staphylococcus aureus V41; agar dilution; read-out: MIC
[3] = test system: Staphylococcus aureus X400; assay: microbe, parasite or virus in culture
[4] = test system: Staphylococcus aureus S13E; assay: microbe, parasite or virus in culture
[5] = test system: Staphylococcus epidermidis EPI1; assay: In vitro antibacterial activity, standard agar-dilution assay; details: Staphylococcus epidermidis EPI1; agar dilution; read-out: MIC
[6] = test system: Staphylococcus epidermidis 222; assay: as above; details: Staphylococcus epidermidis 222; agar dilution; read-out: MIC
[7] = test system: Streptococcus pyogenes C203; assay: as above; details: Streptococcus pyogenes C203; agar dilution; read-out: MIC
[8] = test system: Streptococcus pneumoniae Park 1; assay: as above; details: PARK1; Streptococcus pneumoniae Park 1; agar dilution; read-out: MIC
[9] = test system: Streptococcus faecium ATCC 9790; assay: as above; details: Enterococcus faecium, ATCC9790; Streptococcus faecium ATCC 9790; agar dilution; read-out: MIC
[10] = test system: Streptococcus sp group D 2041; assay: as above; details: GROUPD2041; Streptococcus sp group D 2041; agar dilution; read-out: MIC
[11] = test system: Haemophilus influenzae C.L.; assay: as above; details: Haemophilus influenzae C.L.; agar dilution; read-out: MIC
[12] = test system: Haemophilus influenzae 76; assay: as above; details: Haemophilus influenzae 76; agar dilution; read-out: MIC
[13] = test system: Escherichia coli N10; assay: as above; details: Escherichia coli N10; agar dilution; read-out: MIC
[14] = test system: Escherichia coli EC14; assay: as above; details: Escherichia coli EC14; agar dilution; read-out: MIC
[15] = test system: Escherichia coli TEM; assay: as above
[16] = test system: Klebsiella pneumoniae X26; assay: as above; details: Klebsiella pneumoniae X26; agar dilution; read-out: MIC
[17] = test system: Klebsiella pneumoniae X68; assay: as above; details: Klebsiella pneumoniae X68; agar dilution; read-out: MIC
[18] = test system: Klebsiella pneumoniae KAE; assay: as above; details: Klebsiella pneumoniae KAE; agar dilution; read-out: MIC
[19] = test system: Salmonella sp. X514; assay: as above; details: Salmonella sp. X514; agar dilution; read-out: MIC
[20] = test system: Shigella sonnei N9; assay: as above; details: Shigella sonnei N9; agar dilution; read-out: MIC
[21] = test system: Proteus morganii PR15; assay: as above; details: Morganella morganii; Proteus morganii PR15; agar dilution; read-out: MIC
[22] = test system: Acinetobacter calcoaceticus AC12; assay: as above; details: Acinetobacter calcoaceticus AC12; agar dilution; read-out: MIC
[23] = test system: Candida albicans; assay: In vitro antifungal activity, standard disc-plate assay; details: disc-plate assay, read-out: MIC
[24] = test system: Trichophyton mentagrophytes; assay: as above; details: disc-plate assay, read-out: MIC

Structure (SMILES): [C-]#[N+][C@@H]1[C@H]2c3c[nH]c4cccc(c34)C(C)(C)[C@H]2C[C@@H](Cl)[C@]1(C)C=C [Compound 1, hapalindole A]
- MIC [1]: 4 µg/mL (≈ 11.8 µM)
- MIC [2]: 4 µg/mL (≈ 11.8 µM)
- MIC [3]: 4 µg/mL (≈ 11.8 µM)
- MIC [4]: 4 µg/mL (≈ 11.8 µM)
- MIC [5]: 2 µg/mL (≈ 5.9 µM)
- MIC [6]: 0.06 µg/mL (≈ 0.177 µM)
- MIC [7]: 2 µg/mL (≈ 5.9 µM)
- MIC [8]: 16 µg/mL (≈ 47.2 µM)
- MIC [9]: 16 µg/mL (≈ 47.2 µM)
- MIC [10]: 16 µg/mL (≈ 47.2 µM)
- MIC [11]: 4 µg/mL (≈ 11.8 µM)
- MIC [12]: 4 µg/mL (≈ 11.8 µM)
- MIC [13]: 4 µg/mL (≈ 11.8 µM)
- MIC [14]: 8 µg/mL (≈ 23.6 µM)
- MIC [15]: 4 µg/mL (≈ 11.8 µM)
- MIC [16]: 4 µg/mL (≈ 11.8 µM)
- MIC [17]: > 64 µg/mL
- MIC [18]: > 64 µg/mL
- MIC [19]: 8 µg/mL (≈ 23.6 µM)
- MIC [20]: 8 µg/mL (≈ 23.6 µM)
- MIC [21]: 32 µg/mL (≈ 94.4 µM)
- MIC [22]: 2 µg/mL (≈ 5.9 µM)
- MIC [23]: 1.25 µg/mL (≈ 3.69 µM)
- MIC [24]: 1.25 µg/mL (≈ 3.69 µM)

Structure (SMILES): C=C[C@@]1(C)[C@H](Cl)C[C@H]2[C@H](c3c[nH]c4cccc(c34)C2(C)C)[C@H]1N=C=S [Compound 2, Hapalindole B]
- MIC [1]: 2 µg/mL (≈ 5.39 µM)
- MIC [2]: 2 µg/mL (≈ 5.39 µM)
- MIC [3]: 2 µg/mL (≈ 5.39 µM)
- MIC [4]: 2 µg/mL (≈ 5.39 µM)
- MIC [5]: 2 µg/mL (≈ 5.39 µM)
- MIC [6]: 2 µg/mL (≈ 5.39 µM)
- MIC [7]: 64 µg/mL (≈ 173 µM)
- MIC [8]: 64 µg/mL (≈ 173 µM)
- MIC [9]: 4 µg/mL (≈ 10.8 µM)
- MIC [10]: 8 µg/mL (≈ 21.6 µM)
- MIC [11]: > 64 µg/mL
- MIC [12]: > 64 µg/mL
- MIC [13]: > 64 µg/mL
- MIC [14]: > 64 µg/mL
- MIC [15]: > 64 µg/mL
- MIC [16]: > 64 µg/mL
- MIC [17]: > 64 µg/mL
- MIC [18]: > 64 µg/mL
- MIC [19]: > 64 µg/mL
- MIC [20]: > 64 µg/mL
- MIC [21]: > 64 µg/mL
- MIC [22]: > 64 µg/mL
- MIC [23]: > 20 µg/mL
- MIC [24]: > 20 µg/mL

Structure (SMILES): [C-]#[N+][C@@H]1[C@H](c2c[nH]c3ccccc23)[C@@H](C(=C)C)CC[C@]1(C)C=C [Compound 3, Hapalindole C]
- MIC [1]: 16 µg/mL (≈ 52.6 µM)
- MIC [2]: 16 µg/mL (≈ 52.6 µM)
- MIC [3]: 16 µg/mL (≈ 52.6 µM)
- MIC [4]: 8 µg/mL (≈ 26.3 µM)
- MIC [5]: 8 µg/mL (≈ 26.3 µM)
- MIC [6]: 16 µg/mL (≈ 52.6 µM)
- MIC [7]: > 64 µg/mL
- MIC [8]: > 64 µg/mL
- MIC [9]: > 64 µg/mL
- MIC [10]: > 64 µg/mL
- MIC [11]: 16 µg/mL (≈ 52.6 µM)
- MIC [12]: 16 µg/mL (≈ 52.6 µM)
- MIC [13]: > 64 µg/mL
- MIC [14]: > 64 µg/mL
- MIC [15]: 64 µg/mL (≈ 210 µM)
- MIC [16]: > 64 µg/mL
- MIC [17]: > 64 µg/mL
- MIC [18]: > 64 µg/mL
- MIC [19]: > 64 µg/mL
- MIC [20]: > 64 µg/mL
- MIC [21]: > 64 µg/mL
- MIC [22]: 2 µg/mL (≈ 6.57 µM)
- MIC [23]: 0.625 µg/mL (≈ 2.05 µM)
- MIC [24]: 0.625 µg/mL (≈ 2.05 µM)

Structure (SMILES): C=C[C@@]1(C)CC[C@H](C(=C)C)[C@@H](c2c[nH]c3ccccc23)[C@H]1N=C=S [Compound 4, Hapalindole D]
- MIC [1]: 4 µg/mL (≈ 11.9 µM)
- MIC [2]: 4 µg/mL (≈ 11.9 µM)
- MIC [3]: 8 µg/mL (≈ 23.8 µM)
- MIC [4]: 4 µg/mL (≈ 11.9 µM)
- MIC [5]: 8 µg/mL (≈ 23.8 µM)
- MIC [6]: 4 µg/mL (≈ 11.9 µM)
- MIC [7]: > 64 µg/mL
- MIC [8]: > 64 µg/mL
- MIC [9]: 8 µg/mL (≈ 23.8 µM)
- MIC [10]: 8 µg/mL (≈ 23.8 µM)
- MIC [11]: > 64 µg/mL
- MIC [12]: > 64 µg/mL
- MIC [13]: > 64 µg/mL
- MIC [14]: > 64 µg/mL
- MIC [15]: > 64 µg/mL
- MIC [16]: > 64 µg/mL
- MIC [17]: > 64 µg/mL
- MIC [18]: > 64 µg/mL
- MIC [19]: > 64 µg/mL
- MIC [20]: > 64 µg/mL
- MIC [21]: > 64 µg/mL
- MIC [22]: > 64 µg/mL
- MIC [23]: > 20 µg/mL
- MIC [24]: > 20 µg/mL
